Where two headings read alike, the source gives them in different places. No end group written: not given here.
T1: human TAS1R2-WT/TAS1R3-F514L (Homo sapiens, UniProt Q7RTX0+Q8TE23, F514L)
T1 construct: expressed in transfected cells; host or cells: HEK293T stably expressing Gα16gust44
T1 sequence (Q8TE23 20-839): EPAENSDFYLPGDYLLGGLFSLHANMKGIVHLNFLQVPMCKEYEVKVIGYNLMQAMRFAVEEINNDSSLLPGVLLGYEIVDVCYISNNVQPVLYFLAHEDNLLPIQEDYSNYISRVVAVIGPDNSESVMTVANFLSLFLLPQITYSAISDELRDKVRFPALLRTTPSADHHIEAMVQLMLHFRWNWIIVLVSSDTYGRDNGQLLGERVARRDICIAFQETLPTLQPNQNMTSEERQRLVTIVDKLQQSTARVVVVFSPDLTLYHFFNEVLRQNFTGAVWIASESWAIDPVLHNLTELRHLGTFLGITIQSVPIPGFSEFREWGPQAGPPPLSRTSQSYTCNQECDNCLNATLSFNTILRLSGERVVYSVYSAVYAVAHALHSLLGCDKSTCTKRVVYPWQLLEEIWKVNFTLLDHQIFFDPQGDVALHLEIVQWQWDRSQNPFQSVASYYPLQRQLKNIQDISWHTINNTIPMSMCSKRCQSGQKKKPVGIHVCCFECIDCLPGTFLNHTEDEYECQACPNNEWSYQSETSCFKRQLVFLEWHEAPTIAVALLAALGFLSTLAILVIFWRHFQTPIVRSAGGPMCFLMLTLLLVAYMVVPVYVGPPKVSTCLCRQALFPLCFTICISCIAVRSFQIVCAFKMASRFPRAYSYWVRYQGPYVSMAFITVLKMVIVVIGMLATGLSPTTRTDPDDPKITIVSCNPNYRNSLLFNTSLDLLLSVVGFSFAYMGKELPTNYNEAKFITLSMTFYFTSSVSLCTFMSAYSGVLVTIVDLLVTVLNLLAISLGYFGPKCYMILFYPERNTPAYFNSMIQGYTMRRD
T1 sequence (Q7RTX0 21-852 F514L): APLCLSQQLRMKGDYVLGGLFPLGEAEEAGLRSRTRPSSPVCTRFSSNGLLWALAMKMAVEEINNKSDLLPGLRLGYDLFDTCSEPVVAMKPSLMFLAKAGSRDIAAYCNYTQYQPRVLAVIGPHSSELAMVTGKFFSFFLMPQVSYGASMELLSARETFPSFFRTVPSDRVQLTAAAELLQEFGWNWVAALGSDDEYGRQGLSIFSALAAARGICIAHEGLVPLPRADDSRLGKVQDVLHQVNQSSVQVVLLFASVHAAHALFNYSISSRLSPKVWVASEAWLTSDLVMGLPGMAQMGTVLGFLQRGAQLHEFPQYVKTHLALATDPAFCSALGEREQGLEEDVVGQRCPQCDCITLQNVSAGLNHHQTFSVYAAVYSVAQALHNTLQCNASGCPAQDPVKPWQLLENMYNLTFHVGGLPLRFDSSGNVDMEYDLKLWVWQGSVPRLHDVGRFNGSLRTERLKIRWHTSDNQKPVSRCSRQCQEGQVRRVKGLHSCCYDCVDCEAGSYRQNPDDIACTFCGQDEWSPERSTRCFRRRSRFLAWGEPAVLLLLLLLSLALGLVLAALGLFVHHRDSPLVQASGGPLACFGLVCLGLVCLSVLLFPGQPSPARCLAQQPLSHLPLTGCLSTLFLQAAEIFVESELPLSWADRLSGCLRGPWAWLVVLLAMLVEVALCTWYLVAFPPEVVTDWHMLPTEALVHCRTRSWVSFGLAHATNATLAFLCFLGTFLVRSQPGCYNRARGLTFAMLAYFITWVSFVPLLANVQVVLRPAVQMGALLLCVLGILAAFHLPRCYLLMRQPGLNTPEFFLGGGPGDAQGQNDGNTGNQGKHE


Target: T1, human TAS1R2-WT/TAS1R3-F514L
Experiment: Calcium mobilisation assay, TAS1R2-WT with TAS1R3 variant F514L
Assay type: cell-based
Settings: for Max ΔF/F0: maximal signal amplitude
Excerpt: The coding sequences for TAS1R2 and TAS1R3 were commercially synthesised, and the human codon was optimised for expression in human cells. The coding sequences of human TAS1R2 and TAS1R3 were subcloned and inserted into the mammalian expression vectors pcDNA6/myc-HisA and pcDNA4/myc-HisA (Invitrogen; Thermo Fisher Scientific; Illkirch, France) between the EcoRI and NotI restriction sites, generating the plasmids pcDNA6-TAS1R2 and pcDNA4-TAS1R3, respectively. To increase protein expression in mammalian cells, an upstream start codon was used, which was a sequence called MAX, corresponding to the QBI SP163 element also described in pcDNA4-HisMax (Invitrogen; Thermo Fisher Scientific; Illkirch, France). To measure the expression level of the receptor by immunohistochemistry, we used the FLAG sequence ([…]) in the C-terminal position, which encodes the FLAG tag epitope. SNP variants of TAS1R2 and TAS1R3 were constructed based on […], respectively, using site-directed mutagenesis (Genewiz; Leipzig, Germany).
The HEK293T cells were kindly provided by Jay P. Slack (Givaudan Flavors Corporation; Cincinnati, OH, USA). HEK293T cells stably transfected with Gα16gust44 [43, 67] were seeded in poly-D-lysine-coated clear-bottom black 96-well plates (0.35 × 10^5 cells/well) in high-glucose DMEM supplemented with 2 mM GlutaMAX, 10% dialysed foetal bovine serum with penicillin/streptomycin and G418 (400 μg/mL) at 37 °C and 6.3% CO2 in a humidified atmosphere as previously reported. […] As a negative control, HEK293T cells were mock-transfected with the empty expression vector. After a further 24 h of incubation, the HEK293T cells were washed with C1 buffer (130 mM NaCl, 5 mM KCl, 10 mM HEPES pH 7.4 and 2 mM CaCl2). The 96-well plates containing the cells were then stimulated with sweet-tasting compounds. […] Different concentration ranges were tested depending on the sweet compound injected. The Ca^2+ changes were expressed as fractional changes in fluorescent light intensity: ΔF/F = (F − F0)/F0, where F was the fluorescent light intensity at each point, and F0 was the value of emitted fluorescent light prior to stimulus application. To calculate dose–response relationships, the changes in fluorescence upon stimulus application were averaged, mock-subtracted and baseline-corrected. The dose–response data obtained were adjusted using a 4-parameter logistic equation. The half-maximal effective concentrations (EC50 values) and maximal signal amplitudes were calculated using SigmaPlot software (version 15.0) (Systat Software; San Jose, CA, USA).
For in vitro calcium mobilisation assay performed on hTAS1R2-SNPs, hTAS1R3-SNPs and mTAS1R3-I60T, 6 to 7 concentrations were tested for each sweet compound, plus buffer alone. All concentration–receptor combinations were measured in duplicate, and each experiment was repeated at least 4 times (8 wells/concentration). Results were expressed for each concentration as ΔF/F mean ± SEM and represented as dose–response curves.

Row | Molecule | R1 = Variant EC50/WT EC50 | Max ΔF/F0 | EC50 (read-out: EC50) | EC50 (brazzein)
1 | CC1=CC(=O)NS(=O)(=O)O1 [Acesulfame K, acesulfame K] | 0.7 | 0.14 ± 0.01 | 442 ± 24 µM | 
2 | O=S(=O)(O)NC1CCCCC1 [Cyclamate, cyclamate] |  |  | 1250 ± 30 µM | 
3 | C[C@H](CC[C@@H](O[C@@H]1O[C@H](CO[C@@H]2O[C@H](CO)[C@@H](O)[C@H](O)[C@H]2O)[C@@H](O)[C@H](O)[C@H]1O[C@@H]1O[C@H](CO)[C@@H](O)[C@H](O)[C@H]1O)C(C)(C)O)[C@H]1CC[C@@]2(C)[C@@H]3CC=C4[C@@H](CC[C@H](O[C@@H]5O[C@H](CO[C@@H]6O[C@H](CO)[C@@H](O)[C@H](O)[C@H]6O)[C@@H](O)[C@H](O)[C@H]5O)C4(C)C)[C@]3(C)[C@H](O)C[C@]12C [Mogroside V, mogroside V] | 1.4 | 0.79 ± 0.02 | 44.7 ± 2.8 µM | 
4 | COc1ccc(CCC(=O)c2c(O)cc(O[C@@H]3O[C@H](CO)[C@@H](O)[C@H](O)[C@H]3O[C@@H]3O[C@@H](C)[C@H](O)[C@@H](O)[C@H]3O)cc2O)cc1O [NHDC, neohesperidin dihydrochalcone] | 0.8 | 1.21 ± 0.08 | 37.9 ± 8.4 µM | 
5 | COC(=O)[C@H](Cc1ccccc1)NC(=O)[C@H](CC(=O)O)NCCC(C)(C)C [Neotame] | 1.0 | 0.45 ± 0.01 | 1.23 ± 0.06 µM | 
6 | C=C(C)[C@@H]1CC=C(/C=N/O)CC1 [Perillartine, perillartine] | 1.0 | 1.40 ± 0.24 | 13.9 ± 7.3 µM | 

Now from value to molecule:

Row | R1 = Variant EC50/WT EC50 | Max ΔF/F0 | EC50 (read-out: EC50) | EC50 (brazzein) | Molecule
7 | 0.8 | 0.64 ± 0.02 | 32.1 ± 2.5 µM |  | C=C1C[C@@]23CC[C@H]4[C@@](C)(CCC[C@@]4(C)C(=O)O[C@@H]4O[C@H](CO)[C@@H](O)[C@H](O[C@@H]5O[C@H](CO)[C@@H](O)[C@H](O)[C@H]5O)[C@H]4O[C@@H]4O[C@H](CO)[C@@H](O)[C@H](O)[C@H]4O)[C@@H]2CC[C@]1(O[C@@H]1O[C@H](CO)[C@@H](O)[C@H](O[C@@H]2O[C@H](CO)[C@@H](O)[C@H](O)[C@H]2O)[C@H]1O[C@@H]1O[C@H](CO)[C@@H](O)[C@H](O)[C@H]1O)C3 [Rebaudioside M, rebaudioside M]
8 | 1.3 | 0.49 ± 0.01 | 141 ± 3 µM |  | OC[C@H]1O[C@H](O[C@]2(CCl)O[C@H](CCl)[C@@H](O)[C@@H]2O)[C@H](O)[C@@H](O)[C@H]1Cl [Sucralose]
9 | 0.4 | 1.07 ± 0.04 |  | 44.4 ± 6.4 µg/mL | brazzein (QDKCKKVYENYPVSKCQLANQCNYDCKLDKHARSGECFYDEKRNLQCICDYCEY; ends and bridges not checked; cysteine pairing not given here; UniProt P56552 1-54, looked up) [sweet-tasting protein obtained by recombinant production using the yeast Pichia pastoris]
10 | 0.9 | 0.72 ± 0.04 |  |  | thaumatin
11 |  |  | 9.8 ± 1 µM |  | thaumatin (protein, Eight disulfides, sweet-tasting plant protein, E957) ATFEIVNRCSYTVWAAASKGDAALDAGGRQLNSGESWTINVEPGTKGGKIWARTDCYFDDSGSGICKTGDCGGLLRCKRFGRPPTTLAEFSLNQYGKDYIDISNIKGFNVPMDFSPTTRGCRGVRCAADIVGQCPAKLKAPGGGCNDACTVFQTSEYCCTTGKCGPTEYSRFFKRLCPDAFSYVLDKPTTVTCPGSSNYRVTFCPTA

Source: article PMC11945486, “TAS1R2/TAS1R3 Single-Nucleotide Polymorphisms Affect Sweet Taste Receptor Activation by Sweeteners: The SWEET Project” (Nutrients, 2025)
